Assay results taken from patent US20240059689A1, “PURINE DERIVATIVES AS ANTICANCER AGENTS” (Tango Therapeutics, Inc., priority 2021, published 2024).
Where two headings read alike, the source gives them in different places.

What was measured:
USP1-UAF1 = USP1-UAF1 (Homo sapiens, UniProt O94782); experiment: Ubiquitin Rhodamine assay of USP1-UAF1 activity; format: biochemical
Method: Certain compounds of the disclosure were assessed for USP1-UAF1 activity in a Ubiquitin Rhodamine assay as described in Biology Example 1.

MDA-MB-436 = experiment: Viability assay, BRCA1 mutant cell line MDA-MB-436; format: cell-based; settings: BRCA1 mutant MDA-MB-436, read-out: MDA-MB-436 rel IC50
From the text: (§1) Table 1 also indicates IC50 values in a viability assay for a non-isogenic pair of BRCA1 mutant (column 5-MDA-MB-436) and BRCA1 WT (column 6—HCC1954) cell lines. These values indicate the effect of treatment with compound on cell survival.

HCC1954 = experiment: Viability assay, BRCA1 WT cell line HCC1954; format: cell-based; settings: read-out: HCC1954 rel IC50
From the text: as §1

monoubiquitinated PCNA = experiment: AlphaLISA assay measuring monoubiquitinated PCNA in MDA-MB-436; format: cell-based; settings: read-out: Alpha Lisa IC50
From the text: Table 1 also indicates IC50 values for exemplary compounds in an AlphaLISA assay measuring monoubiquitinated PCNA in a BRCA1 mutant cell line (MDA-MB-436; column 7).

[1] = Homo sapiens, MDA-MB-436, monoubiquitinated PCNA
[2] = Homo sapiens, MDA-MB-436, viability
[3] = Homo sapiens, HCC1954, viability

Sequence of USP1-UAF1 (O94782 whole entry): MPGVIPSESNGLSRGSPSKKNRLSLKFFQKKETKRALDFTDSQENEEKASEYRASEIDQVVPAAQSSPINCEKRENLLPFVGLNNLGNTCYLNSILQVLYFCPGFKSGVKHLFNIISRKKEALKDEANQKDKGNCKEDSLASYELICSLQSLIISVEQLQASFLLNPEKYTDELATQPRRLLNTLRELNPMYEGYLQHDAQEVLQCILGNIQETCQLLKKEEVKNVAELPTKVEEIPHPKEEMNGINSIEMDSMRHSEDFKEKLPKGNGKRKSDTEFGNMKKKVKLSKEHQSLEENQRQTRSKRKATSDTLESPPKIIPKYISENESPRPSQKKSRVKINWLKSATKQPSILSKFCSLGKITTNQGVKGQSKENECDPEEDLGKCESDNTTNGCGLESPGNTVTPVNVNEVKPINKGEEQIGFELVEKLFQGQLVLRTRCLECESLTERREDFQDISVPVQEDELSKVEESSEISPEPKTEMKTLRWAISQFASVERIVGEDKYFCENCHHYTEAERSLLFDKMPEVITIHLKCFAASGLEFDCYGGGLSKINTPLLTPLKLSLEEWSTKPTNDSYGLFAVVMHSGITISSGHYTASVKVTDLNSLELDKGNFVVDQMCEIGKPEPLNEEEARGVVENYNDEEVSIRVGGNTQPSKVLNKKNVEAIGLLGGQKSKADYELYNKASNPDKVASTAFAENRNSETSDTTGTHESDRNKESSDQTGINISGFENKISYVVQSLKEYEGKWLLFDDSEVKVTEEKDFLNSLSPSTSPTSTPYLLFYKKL
Sequence of USP1-UAF1 (Q8TAF3 whole entry partner): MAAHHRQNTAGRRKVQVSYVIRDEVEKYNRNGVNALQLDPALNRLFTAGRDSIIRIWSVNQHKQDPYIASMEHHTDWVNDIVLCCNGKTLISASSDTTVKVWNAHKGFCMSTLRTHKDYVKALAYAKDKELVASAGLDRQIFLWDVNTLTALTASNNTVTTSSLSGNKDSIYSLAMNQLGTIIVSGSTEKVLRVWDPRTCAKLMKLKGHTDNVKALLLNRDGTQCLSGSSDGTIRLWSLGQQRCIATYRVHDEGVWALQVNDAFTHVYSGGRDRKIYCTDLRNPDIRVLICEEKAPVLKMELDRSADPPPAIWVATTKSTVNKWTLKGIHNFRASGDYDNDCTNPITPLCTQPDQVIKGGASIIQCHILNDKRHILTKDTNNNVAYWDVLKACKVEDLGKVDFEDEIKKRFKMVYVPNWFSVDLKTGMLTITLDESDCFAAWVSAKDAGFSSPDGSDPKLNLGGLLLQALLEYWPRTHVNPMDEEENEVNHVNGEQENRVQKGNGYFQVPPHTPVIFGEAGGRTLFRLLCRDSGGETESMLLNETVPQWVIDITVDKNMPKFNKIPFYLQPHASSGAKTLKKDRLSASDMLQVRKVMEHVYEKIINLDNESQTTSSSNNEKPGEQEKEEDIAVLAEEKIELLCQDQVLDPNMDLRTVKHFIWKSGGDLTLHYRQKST

Row | SMILES | IC50 (USP1-UAF1) | IC50 (MDA-MB-436; viability) | IC50 (HCC1954; viability) | IC50 (monoubiquitinated PCNA; [1]) | IC50 (monoubiquitinated PCNA; monoubiquitinated PCNA) | IC50 (MDA-MB-436; [2]) | IC50 (HCC1954; [3])
1 | CC(C)c1ccccc1-c1ncc2c(n1)n(C(C)c1ccc(-c3nc(Cl)cn3C)cc1)c(=N)n2C (single isomer, unassigned) [Example A-9c, 9-(1-(4-(4-chloro-1-methyl-1H-imidazol-2-yl)phenyl)ethyl)-2-(2-isopropylphenyl)-7-methyl-7,9-dihydro-8H-purin-8-imine] | 30 to 100 nM | 250 to 10000 nM | ≥ 10000 nM | 100 to 250 nM | – | – | –
2 | CC(C)c1ccccc1-c1ncc2c(n1)n(C(C)c1ccc(-c3nc(Cl)cn3C)cc1)c(=N)n2C (single isomer, unassigned) [Example A-9d, 9-(1-(4-(4-chloro-1-methyl-1H-imidazol-2-yl)phenyl)ethyl)-2-(2-isopropylphenyl)-7-methyl-7,9-dihydro-8H-purin-8-imine] | < 30 nM | < 100 nM | 250 to 10000 nM | – | < 100 nM | – | –
3 | Cc1nc(-c2ccccc2Cl)nc2c1n(C)c(=N)n2Cc1ccc(-c2nc(C(F)(F)F)cn2C)cc1 (single isomer, unassigned) [Example A-15a, 2-(2-chlorophenyl)-6,7-dimethyl-9-(4-(1-methyl-4-(trifluoromethyl)-1H-imidazol-2-yl)benzyl)-7,9-dihydro-8H-purin-8-imine] | 30 to 100 nM | – | – | 250 to 10000 nM | – | 250 to 10000 nM | ≥ 10000 nM
4 | Cc1nc(-c2ccccc2-c2ccccc2Cl)nc2c1n(C)c(=N)n2Cc1ccc(-c2nc(C(F)(F)F)cn2C)cc1 (single isomer, unassigned) [Example A-15c, 2-(2′-chloro-[1,1′-biphenyl]-2-yl)-6,7-dimethyl-9-(4-(1-methyl-4-(trifluoromethyl)-1H-imidazol-2-yl)benzyl)-7,9-dihydro-8H-purin-8-imine] | < 30 nM | – | – | < 100 nM | – | 100 to 250 nM | 250 to 10000 nM
5 | CC(C)c1ccccc1-c1nc(Cl)c2c(n1)n(Cc1ccc(-c3nc(C(F)(F)F)cn3C)cc1)c(=N)n2C (single isomer, unassigned) [Example A-22a, 6-chloro-2-(2-isopropylphenyl)-7-methyl-9-(4-(1-methyl-4-(trifluoromethyl)-1H-imidazol-2-yl)benzyl)-7,9-dihydro-8H-purin-8-imine] | < 30 nM | – | – | 250 to 10000 nM | – | 250 to 10000 nM | 250 to 10000 nM
6 | CC(C)c1ccccc1-c1nc(-c2ccccc2C(C)C)c2c(n1)n(Cc1ccc(-c3nc(C(F)(F)F)cn3C)cc1)c(=N)n2C (single isomer, unassigned) [Example A-22b, 2,6-bis(2-isopropylphenyl)-7-methyl-9-(4-(1-methyl-4-(trifluoromethyl)-1H-imidazol-2-yl)benzyl)-7,9-dihydro-8H-purin-8-imine] | 30 to 100 nM | – | – | 250 to 10000 nM | – | 250 to 10000 nM | 250 to 10000 nM
7 | CC(C)c1ccccc1-c1ncc2c(n1)n(C(C)C1CCN(c3nc(Cl)cn3C)CC1)c(=N)n2C (single isomer, unassigned) [Example A-26c, 9-(1-(1-(4-chloro-1-methyl-1H-imidazol-2-yl)piperidin-4-yl)ethyl)-2-(2-isopropylphenyl)-7-methyl-7,9-dihydro-8H-purin-8-imine] | 100 to 10000 nM | – | 250 to 10000 nM | 250 to 10000 nM | – | 250 to 10000 nM | –
8 | Cn1cc(C(F)(F)F)nc1-c1ccc(Cn2c(=N)n(C)c3cnc(-c4ccccc4[C@H](O)C(F)(F)F)nc32)cc1 (single isomer, unassigned) [Example T-129, 2,2,2-trifluoro-[2-[8-imino-7-methyl-9-[[4-[I-methyl-4-(trifluoromethyl)imidazol-2-yl]phenyl]methyl]purin-2-yl]phenyl]ethanol] | 30 to 100 nM | – | – | 100 to 250 nM | – | 100 to 250 nM | ≥ 10000 nM
9 | Cn1cc(C(F)(F)F)nc1-c1ccc(Cn2c(=N)n(C)c3cnc(-c4ccccc4[C@@H](O)C(F)(F)F)nc32)cc1 (single isomer, unassigned) [Example T-148, 2,2,2-trifluoro-[2-[8-imino-7-methyl-9-[[4-[I-methyl-4-(trifluoromethyl)imidazol-2-yl]phenyl]methyl]purin-2-yl]phenyl]ethanol] | 100 to 10000 nM | – | – | 100 to 250 nM | – | 250 to 10000 nM | ≥ 10000 nM
10 | CC(C)c1ccccc1-c1ncc2c(n1)n(Cc1ccc(-c3ncc(C(F)(F)F)n3C)cc1)c(=N)n2C [Example A-1, 2-(2-isopropylphenyl)-7-methyl-9-(4-(J-methyl-5-(trifluoromethyl)-1H-imidazol-2-yl)benzyl)-7H-purin-8(9H)-imine] | 100 to 10000 nM | – | – | 250 to 10000 nM | – | 250 to 10000 nM | 250 to 10000 nM
11 | CC(C)c1ccccc1-c1ncc2c(n1)n(CC1CCN(c3nc(Cl)cn3C)CC1)c(=N)n2C [Example A-3, 9-((1-(4-chloro-1-methyl-1H-imidazol-2-yl)piperidin-4-yl)methyl)-2-(2-isopropylphenyl)-7-methyl-7H-purin-8(9H)-imine] | 100 to 10000 nM | – | – | 250 to 10000 nM | – | 250 to 10000 nM | ≥ 10000 nM
12 | CC(C)c1ccccc1-c1ncc2c(n1)n(Cc1ccc(-c3nc(C(F)(F)F)c[nH]3)cc1)c(=N)n2C [Example A-5, 2-(2-isopropylphenyl)-7-methyl-9-(4-(4-(trifluoromethyl)-1H-imidazol-2-yl)benzyl)-7,9-dihydro-8H-purin-8-imine] | 30 to 100 nM | – | – | 250 to 10000 nM | – | 250 to 10000 nM | 250 to 10000 nM
13 | CC(C)c1ccccc1-c1ncc2c(n1)n(Cc1ccc(-c3nc(C(F)(F)F)cn3C)c(F)c1)c(=N)n2C [Example A-33, 9-(3-fluoro-4-(1-methyl-4-(trifluoromethyl)-1H-imidazol-2-yl)benzyl)-2-(2-isopropylphenyl)-7-methyl-7,9-dihydro-8H-purin-8-imine] | < 30 nM | – | – | < 100 nM | – | – | –
14 | CC(C)c1ccccc1-c1ncc2c(n1)n(Cc1cc(F)c(-c3nc(C(F)(F)F)cn3C)c(F)c1)c(=N)n2C [Example A-43, 9-(3,5-difluoro-4-(1-methyl-4-(trifluoromethyl)-1H-imidazol-2-yl)benzyl)-2-(2-isopropylphenyl)-7-methyl-7,9-dihydro-8H-purin-8-imine] | 30 to 100 nM | – | – | 250 to 10000 nM | – | – | –
15 | Cn1cc(C(F)(F)F)nc1-c1ccc(Cn2c(=N)n(C)c3cnc(-c4c(C(F)(F)F)cnn4C)nc32)cc1 [Example T-010] | 30 to 100 nM | – | – | 100 to 250 nM | – | 250 to 10000 nM | –
16 | Cn1cc(C(F)(F)F)nc1-c1ccc(Cn2c(=N)n(C)c3cnc(-c4ccccc4C(F)(F)F)nc32)cc1 [Example T-045] | < 30 nM | – | – | 100 to 250 nM | – | < 100 nM | –
17 | Cn1cc(C(F)(F)F)nc1-c1ccc(Cn2c(=N)n(C)c3cnc(-c4c(C(F)(F)F)nn(C)c4C#N)nc32)cc1 [Example T-072] | 100 to 10000 nM | – | – | – | – | 250 to 10000 nM | 250 to 10000 nM
18 | Cn1cc(C(F)(F)F)nc1-c1ccc(Cn2c(=N)n(C)c3cnc(-c4ccccc4C(F)(F)F)nc32)cn1 [Example T-073] | 100 to 10000 nM | – | – | – | – | 250 to 10000 nM | ≥ 10000 nM
19 | COc1ccn(-c2ccc(Cn3c(=N)n(C)c4cnc(-c5ccccc5C(C)C)nc43)cc2F)n1 [Example T-074] | 100 to 10000 nM | – | – | – | – | 250 to 10000 nM | 250 to 10000 nM
20 | CNc1ncccc1-c1ncc2c(n1)n(Cc1ccc(-c3nc(C(F)(F)F)cn3C)cc1)c(=N)n2C [Example T-075] | 100 to 10000 nM | – | – | – | – | 250 to 10000 nM | 250 to 10000 nM
21 | Cn1c(=N)n(Cc2ccc(-c3nc(C(F)(F)F)cn3C3COC3)cc2)c2nc(-c3ccccc3C(F)(F)F)ncc21 [Example T-077] | 100 to 10000 nM | – | – | – | – | 250 to 10000 nM | ≥ 10000 nM
22 | Cc1cc(-c2nc(C(F)(F)F)cn2C)cc(C)c1Cn1c(=N)n(C)c2cnc(-c3ccccc3C(F)(F)F)nc21 [Example T-080] | 100 to 10000 nM | – | – | – | – | 250 to 10000 nM | 250 to 10000 nM
23 | Cn1c(=N)n(Cc2ccc(-c3nc(C(F)(F)F)cn3CCO)cc2)c2nc(-c3ccccc3C(F)(F)F)ncc21 [Example T-083] | 100 to 10000 nM | – | – | – | – | 250 to 10000 nM | ≥ 10000 nM
24 | COc1ncnc(C2CC2)c1-c1ncc2c(n1)n(C1(c3ccc(-c4nc(C(F)(F)F)cn4C)cc3)CC1)c(=N)n2C [Example T-086] | – | – | – | 100 to 250 nM | – | 100 to 250 nM | ≥ 10000 nM
25 | COc1ncnc(C2CC2)c1-c1ncc2c(n1)n(C[C@H]1CC[C@H](c3nc(C(F)(F)F)cn3C)CC1)c(=N)n2C [Example T-089] | 100 to 10000 nM | – | – | – | – | 250 to 10000 nM | ≥ 10000 nM
26 | CCOc1cc(C(F)(F)F)nn1-c1ccc(Cn2c(=N)n(C)c3cnc(-c4ccccc4C(F)(F)F)nc32)cn1 [Example T-091] | – | – | – | 250 to 10000 nM | – | 250 to 10000 nM | ≥ 10000 nM
27 | CC(C)c1cnccc1-c1ncc2c(n1)n(Cc1ccc(-c3nc(C(F)(F)F)cn3C)cc1)c(=N)n2C [Example T-096] | 100 to 10000 nM | – | – | – | – | 250 to 10000 nM | ≥ 10000 nM
28 | Cn1cc(C(F)(F)F)nc1-c1ccc(Cn2c(=N)n(CC(F)(F)F)c3cnc(-c4c(C(F)(F)F)cnn4C)nc32)cc1 [Example T-101] | < 30 nM | – | – | – | – | 100 to 250 nM | 250 to 10000 nM
29 | COc1ncnc(C2CC2)c1-c1ncc2c(n1)n(Cc1ccc(-c3nc(C(F)(F)F)cn3C)cc1O)c(=N)n2C [Example T-133, 2-[[2-(4-cyclopropyl-6-methoxy-pyrimidin-5-yl)-8-imino-7-methyl-purin-9-yl]methyl]-5-[1-methyl-4-(trifluoromethyl)imidazol-2-yl]phenol] | 30 to 100 nM | – | – | – | – | < 100 nM | ≥ 10000 nM
